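Exposure lasted 48 hours, with cells grown in 96-well plates and compounds tested at five concentrations. TGI: total growth inhibition.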
Columns and labels:
Assay in all cases: inhibition of tumour cell growth, NCI panel, 48 h
[1] = tested on: HCT-15 colon
[2] = tested on: COLO 205 colon
[3] = tested on: KM12 colon
[4] = tested on: SK-MEL-2 melanoma
[5] = tested on: ACHN renal
[6] = tested on: M14 melanoma
[7] = tested on: MALME-3M melanoma
[8] = tested on: TK-10 renal
[9] = tested on: IGROV1 ovarian
[10] = tested on: HT29 colon
[11] = tested on: 786-0 renal
[12] = tested on: HS 578T breast
[13] = tested on: MCF7 breast
[14] = tested on: CAKI-1 renal
[15] = tested on: U251 CNS
[16] = tested on: MDA-N
[17] = tested on: DU-145 prostate
[18] = tested on: SK-OV-3 ovarian
[19] = tested on: CCRF-CEM leukemia
[20] = tested on: SF-295 CNS
[21] = tested on: A549 NSCLC
[22] = tested on: UO-31 renal
[23] = tested on: NCI-H226 lung
[24] = tested on: RXF 393 renal
[25] = tested on: UACC-257 melanoma
[26] = tested on: OVCAR-4 ovarian
[27] = tested on: MOLT-4 leukemia
[28] = tested on: MDA-MB-231 breast
[29] = tested on: MDA-MB-435
[30] = tested on: OVCAR-5 ovarian
[31] = tested on: NCI-H522 lung
[32] = tested on: SNB-19 CNS
[33] = tested on: UACC-62 melanoma
[34] = tested on: OVCAR-8 ovarian
[35] = tested on: SF-268 CNS
[36] = tested on: SK-MEL-5 melanoma
[37] = tested on: HCT-116 colon
[38] = tested on: HOP-62 NSCLC
[39] = tested on: EKVX NSCLC
[40] = tested on: SNB-75 CNS
[41] = tested on: NCI-H460 lung
[42] = tested on: SN12C renal
[43] = tested on: LOX IMVI melanoma
[44] = tested on: SF-539 CNS
[45] = tested on: OVCAR-3 ovarian
[46] = tested on: NCI/ADR-RES ovarian
[47] = tested on: SR leukemia
[48] = tested on: SW-620 colon
[49] = tested on: SK-MEL-28 melanoma
[50] = tested on: NCI-H23 lung
[51] = tested on: BT-549 breast
[52] = tested on: A498 renal
[53] = tested on: RPMI-8226 leukemia
[54] = tested on: PC-3 prostate
[55] = tested on: HOP-92 NSCLC
[56] = tested on: HCC-2998 colon
[57] = tested on: K-562 leukemia
[58] = tested on: HL-60(TB) leukemia
[59] = tested on: T-47D breast

For `COc1cccc(C(=O)O[C@H]2[C@@H]3[C@]4(OC(C)=O)CO[C@@H]4C[C@H](O)[C@@]3(C)C(=O)[C@H](OC(C)=O)C3=C(C)[C@@H](OC(=O)[C@H](O)[C@@H](NC(=O)OC(C)(C)C)c4ccco4)C[C@]2(O)C3(C)C)c1`, the TGI [1] was over 16.4 µM, the TGI [2] was 0.119 µM and the TGI [3] was over 15.2 µM. It also gave a TGI [4] of 16.9 µM, a TGI [5] of over 37.5 µM and a TGI [6] of 5.9 µM. It also gave a TGI [7] of over 37.5 µM, a TGI [8] of 27.4 µM and a TGI [9] of over 37.5 µM. It also gave a TGI [10] of 0.133 µM, a TGI [11] of over 37.5 µM and a TGI [12] of 3.4 µM. It also gave a TGI [13] of over 37.5 µM, a TGI [14] of over 37.5 µM and a TGI [15] of over 16.6 µM. For the same molecule, the TGI [16] was 0.0382 µM, the TGI [17] was over 37.5 µM and the TGI [18] was 0.0279 µM. The TGI [19] was 0.368 µM, the TGI [20] was 0.151 µM and the TGI [21] was over 37.5 µM. For the same molecule, the TGI [22] was over 35 µM, the TGI [23] was over 15.2 µM and the TGI [24] was over 9.16 µM. The TGI [25] was over 37.5 µM, the TGI [26] was over 37.5 µM and the TGI [27] was 9.99 µM. For the same molecule, the TGI [28] was over 37.5 µM, the TGI [29] was 0.0909 µM and the TGI [30] was over 22.8 µM. The TGI [31] was 0.157 µM, the TGI [32] was over 30 µM and the TGI [33] was over 27.6 µM. For the same molecule, the TGI [34] was over 14.4 µM, the TGI [35] was over 37.5 µM and the TGI [36] was over 15.7 µM. The TGI [37] was 9.93 µM, the TGI [38] was over 32.7 µM and the TGI [39] was over 28.9 µM. The TGI [40] was 0.0241 µM, the TGI [41] was over 37.5 µM and the TGI [42] was over 37.5 µM. The TGI [43] was over 15.6 µM, the TGI [44] was 0.33 µM and the TGI [45] was under 0.00375 µM. It also gave a TGI [46] of over 18.3 µM, a TGI [47] of over 14.8 µM and a TGI [48] of over 37.5 µM. The TGI [49] was over 29.5 µM, the TGI [50] was over 37.5 µM and the TGI [51] was over 34.1 µM.

Molecule `CC(C)(C)OC(=O)N[C@H]1CCN(C2CCCCC2)C1=O` has a TGI [1] of over 100 µM, a TGI [52] of over 100 µM and a TGI [2] of over 100 µM. The TGI [4] was over 100 µM, the TGI [53] was over 100 µM and the TGI [5] was over 100 µM. For the same molecule, the TGI [6] was over 100 µM, the TGI [8] was over 100 µM and the TGI [9] was over 100 µM. For the same molecule, the TGI [11] was over 100 µM, the TGI [12] was over 100 µM and the TGI [13] was over 100 µM. For the same molecule, the TGI [15] was over 100 µM, the TGI [16] was over 100 µM and the TGI [17] was over 100 µM. It also gave a TGI [18] of over 100 µM, a TGI [19] of over 100 µM and a TGI [21] of over 100 µM. The TGI [22] was over 100 µM, the TGI [23] was over 100 µM and the TGI [54] was over 100 µM. For the same molecule, the TGI [27] was over 100 µM, the TGI [28] was over 100 µM and the TGI [55] was over 100 µM. The TGI [29] was over 100 µM, the TGI [30] was over 100 µM and the TGI [32] was over 100 µM. The TGI [33] was over 100 µM, the TGI [34] was over 100 µM and the TGI [56] was over 100 µM. It also gave a TGI [35] of over 100 µM, a TGI [57] of over 100 µM and a TGI [36] of over 100 µM. It also gave a TGI [37] of over 100 µM, a TGI [38] of over 100 µM and a TGI [39] of over 100 µM. It also gave a TGI [40] of over 100 µM, a TGI [41] of over 100 µM and a TGI [42] of over 100 µM. For the same molecule, the TGI [43] was over 100 µM, the TGI [44] was over 100 µM and the TGI [46] was over 100 µM. The TGI [48] was over 100 µM, the TGI [49] was over 100 µM and the TGI [58] was over 100 µM. It also gave a TGI [50] of over 100 µM.

In the case of `N#CCCC1C(C#N)C2(Cl)CC1(Cl)C(Cl)=C2Cl` (centres undefined), the TGI [1] is reported as over 10 µM, the TGI [52] is reported as over 10 µM and the TGI [2] is reported as over 10 µM. The TGI [3] was over 10 µM, the TGI [4] was over 10 µM and the TGI [53] was over 10 µM. For the same molecule, the TGI [5] was over 10 µM, the TGI [6] was over 10 µM and the TGI [7] was over 10 µM. The TGI [8] was over 10 µM, the TGI [9] was over 10 µM and the TGI [10] was over 10 µM. It also gave a TGI [12] of over 10 µM, a TGI [13] of over 10 µM and a TGI [14] of over 10 µM. For the same molecule, the TGI [15] was over 10 µM, the TGI [16] was over 10 µM and the TGI [17] was over 10 µM. The TGI [18] was over 10 µM, the TGI [19] was over 10 µM and the TGI [20] was over 10 µM. For the same molecule, the TGI [21] was over 10 µM, the TGI [22] was over 10 µM and the TGI [23] was over 10 µM. For the same molecule, the TGI [24] was over 10 µM, the TGI [54] was over 10 µM and the TGI [26] was over 10 µM. For the same molecule, the TGI [27] was over 10 µM, the TGI [28] was over 10 µM and the TGI [29] was over 10 µM. The TGI [30] was over 10 µM, the TGI [31] was over 10 µM and the TGI [32] was over 10 µM. For the same molecule, the TGI [33] was over 10 µM, the TGI [34] was over 10 µM and the TGI [56] was over 10 µM. It also gave a TGI [35] of over 10 µM, a TGI [57] of over 10 µM and a TGI [36] of over 10 µM. The TGI [37] was over 10 µM, the TGI [38] was over 10 µM and the TGI [39] was over 10 µM. It also gave a TGI [40] of over 10 µM, a TGI [41] of over 10 µM and a TGI [42] of over 10 µM. It also gave a TGI [43] of over 10 µM, a TGI [59] of over 10 µM and a TGI [44] of over 10 µM. It also gave a TGI [45] of over 10 µM, a TGI [46] of over 10 µM and a TGI [48] of over 10 µM. The TGI [49] was over 10 µM, the TGI [58] was over 10 µM and the TGI [50] was over 10 µM.

Molecule `COc1cc2c(c(OC)c1OC)C(=O)[C@@H]1[C@H]2N1C(N)=O` has a TGI [1] of over 100 µM, a TGI [2] of over 100 µM and a TGI [3] of over 100 µM. It also gave a TGI [53] of over 100 µM, a TGI [5] of over 100 µM and a TGI [6] of over 100 µM. It also gave a TGI [7] of over 100 µM, a TGI [8] of over 100 µM and a TGI [9] of over 100 µM. The TGI [10] was over 100 µM, the TGI [11] was over 100 µM and the TGI [12] was over 100 µM. It also gave a TGI [13] of over 100 µM, a TGI [14] of over 100 µM and a TGI [15] of over 100 µM. It also gave a TGI [16] of over 100 µM, a TGI [17] of over 100 µM and a TGI [19] of over 100 µM. It also gave a TGI [20] of over 100 µM, a TGI [21] of over 100 µM and a TGI [22] of over 100 µM. The TGI [23] was over 100 µM, the TGI [24] was over 100 µM and the TGI [25] was over 100 µM. It also gave a TGI [54] of over 100 µM, a TGI [27] of over 100 µM and a TGI [28] of over 100 µM. The TGI [29] was over 100 µM, the TGI [30] was over 100 µM and the TGI [31] was over 100 µM. For the same molecule, the TGI [32] was over 100 µM, the TGI [33] was 68.2 µM and the TGI [34] was over 100 µM. The TGI [56] was over 100 µM, the TGI [35] was over 100 µM and the TGI [57] was over 100 µM. The TGI [36] was over 100 µM, the TGI [37] was over 100 µM and the TGI [38] was over 100 µM. For the same molecule, the TGI [39] was over 100 µM, the TGI [40] was over 100 µM and the TGI [41] was over 100 µM. It also gave a TGI [42] of over 100 µM, a TGI [43] of over 100 µM and a TGI [59] of over 100 µM. It also gave a TGI [44] of over 100 µM, a TGI [45] of over 100 µM and a TGI [46] of over 100 µM. It also gave a TGI [47] of over 100 µM, a TGI [48] of over 100 µM and a TGI [49] of over 100 µM. It also gave a TGI [58] of over 100 µM and a TGI [50] of over 100 µM.

Reference: PubChem BioAssay (NCI)
